Assay results reported in patent publication US20060172992A1, “Therapeutic agent for overactive bladder resulting from cerebral infarction” (EISAI CO., LTD., priority 2004, published 2006).
Entries after “also recorded” stand apart in the source; their conditions may differ.

What was measured:
[1] = test system: rat with overactive bladder caused by cerebrovascular disease; conditions: cited from earlier work
[2] = test system: human with overactive bladder caused by cerebrovascular disease; conditions: cited from earlier work
[3] = test system: cerebral infarction rats; experiment: Bladder pressure measurement after intraventricular administration, cerebral infarction rats; assay type: in vivo, rat
Method: After producing cerebral infarction rats, drug infusion tubes were placed in the lateral ventricles of the rats.
The process was conducted in the same manner as Example 5 except that metal tubes were inserted into lateral ventricles upon producing cerebral infarction rats. […] Feasibility of intraventricular administration was determined after injecting ink into the brain, sacrificing the rats and removing the brains to verify on their faces. […] As vehicle, saline was infused for […]. Experiments of five examples for each concentration were conducted.

[4] = test system: overactive bladder model rats (cerebral infarction by left middle cerebral artery embolization); experiment: Bladder pressure measurement after intravenous administration, cerebral infarction rats (CI group)
[5] = 5×10^−4 mg/kg and 5×10^−5 mg/kg

| Structure (SMILES) | micturition reflex [1] | micturition reflex [2] | bladder capacity, dose comparison ([3]; cerebral infarction group, 5×10^−5 mg/ml) | increase in bladder capacity ([3]; cerebral infarction rats, 5×10^−5 mg/ml) | bladder capacity, difference from vehicle administration group ([3]; cerebral infarction rats, 5 μl of 5×10^−5 mg/ml and 5×10^−6 mg/ml, hydrochloride) | bladder capacity ([3]; cerebral infarction rats, 5 μl of 5×10^−7 to 5×10^−4 mg/ml, hydrochloride) | micturition contraction pressure ([3]; respective doses, versus vehicle, hydrochloride) | micturition contraction pressure [4, 5] | retained urine [4, 5] | micturition contraction pressure ([4]; CI group, 5×10^−1 mg/kg) | bladder capacity, difference from vehicle administration group ([4]; CI group, 5×10^−4 mg/kg and 5×10^−5 mg/kg, hydrochloride) | increase in bladder capacity (percentage of change from control) ([4]; CI group, 5×10^−5 mg/kg) | percentage of change in bladder capacity ([4]; CI group, 5×10^−4 to 5×10^−5 mg/kg (bladder capacity most increased)) | bladder capacity ([4]; CI group, 5×10^−7 to 5×10^−1 mg/kg every 30 minutes, hydrochloride, 1 mg/kg) | micturition contraction pressure, versus vehicle administration group ([4]; CI group, 5×10^−7 to 5×10^−2 mg/kg) |
| --- | --- | --- | --- | --- | --- | --- | --- | --- | --- | --- | --- | --- | --- | --- | --- |
| COc1ccc(C(=O)N2CCCC2=O)cc1 [Aniracetam] | suppression of micturition reflex is observed | suppression of micturition reflex is observed | – | – | – | – | – | – | – | – | – | – | – | – | – |
| COc1cc2c(cc1OC)C(=O)C(CC1CCN(Cc3ccccc3)CC1)C2.Cl (stereo not drawn) [donepezil hydrochloride, 1-benzyl-4-[(5,6-dimethoxy-1-indanone)-2-yl]methylpiperidine hydrochloride] | – | – | most increased | 95.8% | increased with a significant margin | notably increased | No change; also recorded: no significant difference | no change | little retained urine | significantly increased | significant difference from the vehicle administration group | 52.8% | 52.8% | increased the bladder capacities; also recorded: gradually increased | no significant difference |
